Data set [1] has as its system rats. The experiment in a line: 28-day repeated dose study in rats with mass spectrometry-based plasma metabolite profiling (GC-MS, LC-MS, SPE-LC-MS); treatment ratios versus control. The following applies: plasma, male rats.
The subject of data set [2] is rats. As to conditions: rat, in vivo.
Where [3] appears, read: day 7, high dose, Table 6b ACE inhibitor induced like toxicity.
Where [4] appears, read: day 7, high dose, Table 1d diuretic effect.
The mark [5] stands for this setting: day 14, high dose, Table 1c diuretic effect.
Where [6] appears, read: day 14, high dose, Table 6b ACE inhibitor induced like toxicity.
[7] abbreviates: day 14, high dose, Table 1d diuretic effect.
The mark [8] stands for this setting: day 28, high dose, Table 6b ACE inhibitor induced like toxicity.
Where [9] appears, read: day 28, high dose, Table 1d diuretic effect.

Read-outs that look alike come from different tables or passages of the source. Marks after values point to notes of the source that are not given here.

With `NCCCC[C@H](N[C@@H](CCc1ccccc1)C(=O)O)C(=O)N1CCC[C@H]1C(=O)O` [Lisinopril], in data set [1] (day 7, high dose, Table 1c diuretic effect), the “Threonine, treatment ratio versus control” value was 0.99^. In data set [1] (day 7, high dose, Table 6a ACE inhibitor induced like toxicity), the “Lysine, treatment ratio versus control” value is 0.92^. The “Cytosine, treatment ratio versus control” value in data set [1] (setting [3]) is 0.97^; in data set [1] (setting [6]) it was 0.89 *; in data set [1] (setting [8]) it was 1. The “Glutamate, treatment ratio versus control” value was 0.94 * in data set [1] (setting [3]); 0.94 * in data set [1] (setting [4]); 0.85 * in data set [1] (setting [6]); 0.85 * in data set [1] (setting [7]); 0.87 * in data set [1] (setting [8]); 0.87 * in data set [1] (setting [9]). Further, the “Lysophosphatidylcholine (C20:4), treatment ratio versus control” value is 0.97^ in data set [1] (setting [4]), 0.94^ in data set [1] (setting [7]) and 0.9 * in data set [1] (setting [9]). Also, the “Malate, treatment ratio versus control” value in data set [1] (setting [4]) is reported as 0.75 *; in data set [1] (setting [7]) it was 0.6 *; in data set [1] (setting [9]), 0.65 *. Moreover, in data set [1] (setting [5]), the “Ceramide (d18:1, C24:0), treatment ratio versus control” value is on record as 1.19 *. Besides, the “Choline plasmalogen No 03, treatment ratio versus control” value in data set [1] (setting [5]) is 1.1 *. In addition, in data set [1] (setting [5]), the “Sphingomyelin (d18:2, C16:0), treatment ratio versus control” value is listed as 1.38 *. Moreover, the “1,5-Anhydrosorbitol, treatment ratio versus control” value in data set [1] (day 14, high dose, Table 6a ACE inhibitor induced like toxicity) is 1.2 *; in data set [1] (day 28, high dose, Table 6a ACE inhibitor induced like toxicity), 1.53 *; in data set [2] it was 1.22 *.

These data come from US20150011423A1, “MEANS AND METHODS FOR ASSESSING KIDNEY TOXICITY” (BASF SE, priority 2011, published 2015).
